Patent US20060099712A1, “Correlation of anti-cancer activity of dyes with redox potentials” (Eastman Kodak Company, priority 2004, published 2006)

System: CX-1 Human Colon Carcinoma
Experiment: Clonogenic dye screening assay, CX-1 cells (IC50)
Type: cell-based
Settings: for CX (IC50 in the CX-1 cell line): 3 hrs treatment, colonies after 7-10 days, unit from method b117-118; for CV/CX (selectivity, kill ratio): ratio of IC50 in normal CV-1 line to IC50 in carcinoma CX-1 line
Text: CX-1 is a cancerous human colon adenocarcinoma cell line. CV-1 is a non-cancerous control, which is a kidney epithelial cell line from an African green monkey. IC50 is the dye concentration at which 50% of the cells are killed. Selectivity or kill ratio is defined as the ratio of […] at IC50 for both CX-1 and CV-1. A ratio with a high number indicates a high selectivity.
The dyes were screened in two cell lines. CX-1 is a human colon adenocarcinoma cell line. CV-1 is a kidney epithelial cell line from an African green monkey. CV-1 was used as a reference because no normal human epithelial cell line is available for clonogenic assay.
In the initial screen, dyes were examined at six different concentrations to generate a dose response curve. An IC50 value, the concentration at which 50% of the cells are killed, was then calculated. Initially, a dye concentration of 1.0 μg/mL was the highest examined for the CX-1 cell line and 0.005 μg/mL was the lower limit. The corresponding limits on the CV-1 cell line were […].
The screening procedure used a response curve that was determined from eight dye concentrations. The upper and lower limits of CX-1 were 0.32 and 0.0015 μg/mL, respectively, and the corresponding revised limits on CV-1 were 3.2 and 0.025 μg/mL. The screening results were reported by assigning an IC50 value to each dye for the CV-1 and CX-1 cell lines. These values will be referred to herein simply as CV and CX. The most desirable result would be to have a dye that was highly toxic to carcinoma cells but nontoxic to ‘normal’ cells. One measure of this type of selectivity is the ratio of the IC50's in the normal cell line to that in the carcinoma line, CV/CX.
Compounds are screened via an in vitro assay. CV-1 and CX-1 cells are seeded into separate assay plates. The plates are treated with varying concentrations of test compounds, rinsed, and colonies allowed to grow. IC50's are determined and drugs evaluated based on their selectivity and toxicity. Assay Steps: • I. Seeding Cells • II. Weighing • III. Preparation of Solution • IV. Treatment • V. Rinsing and Feeding • VI. Fixing • VII. IC50 Determination I. Seeding Cells
The cells should be seeded 16-30 hours before treatment. The media for CV-1 cells is DME+5% calf serum +5% Nuserum. The media for CX-1 cells is RPMI/DME (50/50)+5% calf serum +5% Nuserum.
(c) number of cells based on 2000 CX-1 cells/well and 1000 CV-1 cells/well. NOTE: Always make enough cell suspension for 1 extra plate to allow for volume loss during transfers.
• (a) For CV-1: 256 ug/ml-256 ul of 1 mg/ml stock +744 ul DMSO • (b) For CX-1: 25.6 ug/ml-100 ul of 256 ug/ml+900 ul DMSO IV. Treatment • 1. Each plate is treated with 4 test compounds, one positive control and one negative control. • 2. Serial dilutions of the compounds are made in the following way:
2 multi-well pipetters are used. One is set for 10 ul and one for 200 ul. Each is equipped with 6 tips spaced such that they fit into the 6 rows of a plate. 390 ul of media is added to the first column of each plate. 10 ul each of 4 compound solutions, a positive and a negative control are taken up and put into the first column of wells. The 200 ul pipetter is then placed in the same wells, pipetted up and down 3 times and two 200 ul aliquots are moved to the next column of wells. This column is pipetted up and down 3 times and 400 ul moved to column 3, etc. The final 400 ul excess from column 8 is discarded.
• 3. Label the plates along the front, each row −1 compound. • 4. Incubate the plates at 37° C. for 3 hrs. V. Rinsing • 1. Prepare several bottles of CX-1 and CV-1 media. • 2. Check for precipitate in first column of each plate and note. • 3. Starting with the plates treated first, rinse several plates at a time by aspirating the treatments and refilling each well with 0.5-1.0 ml of the rinse media. Aspirate and refill 2 more times for a total of 3 rinses. • 4.

[1] = listed as drawing 41|Et|5-Cl|5-Cl

Structure (SMILES)	CX (IC50 in the CX-1 cell line) [µg/mL]	CV/CX (selectivity, kill ratio)	CX (IC50 in the CX-1 cell line) [1] [µg/mL]	CV/CX (selectivity, kill ratio) [1]
CCN1/C(=C/C(=C/c2sc3ccccc3[n+]2CC)Sc2ccc(C)cc2)Sc2ccccc21 [drawing 38|E|H|SPhMe|H]	0.07	3.57		
CCSC(=Cc1sc2ccccc2[n+]1CC)C=C1Sc2ccccc2N1CC [drawing 38|E|H|Set|H]	0.04	15.0		
CN1/C(=C/C=C(\C=O)c2sc3ccccc3[n+]2C)Sc2ccccc21 [drawing 38|M|CHO|H|H]	>0.32	10.0		
CCC(=Cc1sc2ccccc2[n+]1C)C=C1Sc2ccccc2N1C [drawing 38|M|H|Et|H]		14.0		
CC(=Cc1sc2ccccc2[n+]1C)C=C1Sc2ccccc2N1C [drawing 38|M|H|Me|H]	0.02	5.0		
CSC(=Cc1sc2ccccc2[n+]1C)C=C1Sc2ccccc2N1C [drawing 38|M|H|SMe|H]	0.015	26.6		
CN1C(=CC(=Cc2sc3ccccc3[n+]2C)Sc2ccccc2)Sc2ccccc21 [drawing 38|M|H|SPh|H]	0.065	7.69		
CCN1C(=CC(=Cc2sc3ccccc3[n+]2CC)CSC(C)=O)Oc2ccccc21 [drawing 39|E|H|CSC(═O)C]	0.03	33.3		
CCC(=Cc1sc2ccccc2[n+]1CC)C=C1Oc2ccccc2N1CC [drawing 39|E|H|Et]	0.03	33.3		
CCN1C(=CC(C)=Cc2sc3ccccc3[n+]2CC)Oc2ccccc21 [drawing 39|E|H|Me]	0.05	20.0		
CCN1/C(=C/C=C(\OC(C)=O)c2sc3ccccc3[n+]2CC)Oc2ccccc21 [drawing 39|E|OAc|H]		10.0		
CCN1/C(=C/C=C(\O)c2sc3ccccc3[n+]2CC)Oc2ccccc21 [drawing 39|E|OH|H]		10.0		
CC[n+]1c(/C=C(/C=C2\Oc3ccccc3N2C)Sc2ccccc2)sc2ccccc21 [drawing 39|M/E|H|SPh]	0.1	3.0		
CC[n+]1c(/C(=C/C=C2\Oc3ccccc3N2C)Sc2ccccc2)sc2ccccc21 [drawing 39|M/E|SPh|H]		3.0		
CCC(/C=C1\Oc2ccc3ccccc3c2N1CC)=C\c1sc2ccc3ccccc3c2[n+]1CC [drawing 40|E|Et]	0.06	5.0		
CCN1/C(=C\C=C\c2sc3ccc4ccccc4c3[n+]2CC)Oc2ccc3ccccc3c21 [drawing 40|E|H]	0.3	6.7		
CCSC(=C\c1sc2ccc3ccccc3c2[n+]1CC)/C=C1\Oc2ccc3ccccc3c2N1CC [drawing 40|E|SEt]	0.04	1.25		
CCN1/C(=C/C(=C/c2sc3ccc4ccccc4c3[n+]2CC)SC)Oc2ccc3ccccc3c21 [drawing 40|E|SMe]	0.04	5.0		
CCC(/C=C1\Oc2ccc3ccccc3c2N1C)=C\c1sc2ccc3ccccc3c2[n+]1C [drawing 40|M|Et]	0.08	5.0		

Structure (SMILES)	CX (IC50 in the CX-1 cell line) [µg/mL]	CV/CX (selectivity, kill ratio)	CX (IC50 in the CX-1 cell line) [1] [µg/mL]	CV/CX (selectivity, kill ratio) [1]
CN1/C(=C/C(=C/c2sc3ccc4ccccc4c3[n+]2C)c2ccccc2)Oc2ccc3ccccc3c21 [drawing 40|M|Ph]	0.03	10.0		
CCN1C(=CC=Cc2sc3ccc(Cl)cc3[n+]2CC)Sc2ccc(Cl)cc21 [drawing 41|ET|5-Cl|5-Cl]	0.04	40.0	0.30	16.7
CCN1/C(=C/C=C/c2sc3cc(O)c(O)cc3[n+]2CC)Sc2ccccc21 [drawing 41|Et|5,5-OH|H]		10.0		
CCN1C(=CC=Cc2sc3cc(OC)c(OC)cc3[n+]2CC)Sc2ccccc21 [drawing 41|Et|5,6-MeO|H]	0.02	20.0		
CCN1C(=CC=Cc2sc3ccc(Br)cc3[n+]2CC)Sc2ccc(Br)cc21 [drawing 41|Et|5-Br|5-Br]	0.04	35.0		
CCN1/C(=C/C=C/c2sc3c(N(C)C)cc(Cl)cc3[n+]2CC)Sc2ccccc21 [drawing 41|Et|5-Cl, 7-N(Me)2|H]	0.03	6.7		
CCN1C(=CC=Cc2sc3ccc(Cl)cc3[n+]2CC)Sc2ccccc21 [drawing 41|Et|5-Cl|H]	0.02	40.0		
CCN1/C(=C/C=C/c2sc3ccc(OC)cc3[n+]2CC)Sc2ccc(OC)cc21 [drawing 41|Et|5-MeO|5-MeO]		40.0		
CCN1C(=CC=Cc2sc3ccc(OC)cc3[n+]2CC)Sc2ccc(C)cc21 [drawing 41|Et|5-MeO|5-Me]	0.015	13.3		
CCN1C(=CC=Cc2sc3ccc(OC)cc3[n+]2CC)Sc2ccccc21 [drawing 41|Et|5-MeO|H]		40.0		
CCN1/C(=C/C=C/c2sc3ccc(-c4ccccc4)cc3[n+]2CC)Sc2ccc(-c3ccccc3)cc21 [drawing 41|Et|5-Ph|5-Ph,]	0.08	1.25		
CCN1C(=CC=Cc2sc3cc(OC)ccc3[n+]2CC)Sc2cc(OC)ccc21 [drawing 41|Et|6-MeO|6-MeO]	0.01	9.0		
CCN1/C(=C/C=C/c2sc3c(OC)cccc3[n+]2CC)Sc2c(OC)cccc21 [drawing 41|Et|7-MeO|7-MeO]		5.0		
CCN1/C(=C/C=C/c2sc3cc(C#N)ccc3[n+]2C)Sc2ccccc21 [drawing 41|M/E|6-CN|H]	0.16	20.0		
CN1/C(=C/C=C/c2sc3c(F)c(F)c(F)c(F)c3[n+]2C)Sc2c(F)c(F)c(F)c(F)c21 [drawing 41|Me|4,5,6,7-F|4,5,6,7-F]	>0.32	10.0		
CCN1/C(=C\C=C\c2[se]c3ccccc3[n+]2CC)Sc2cc(O)c(O)cc21 [drawing 42|H|5,6-OH]	0.300			
CCN1C2=C(CCc3ccccc32)S/C1=C\C=C\c1sc2c([n+]1CC)-c1ccccc1CC2 [drawing 43|E|4,5-H|4,5-H]	0.006	8.33		
CCN1/C(=C/C=C/c2sc3ccc4ccccc4c3[n+]2CC)Sc2ccc3ccccc3c21 [drawing 43|E|H|H]	0.3	6.7		
CC1CC2=C(c3ccccc31)N(C)/C(=C/C=C/c1sc3c([n+]1C)-c1ccccc1C(C)C3)S2 (stereo not drawn) [drawing 43|M|4,5-H, 5-ME|4,5-H, 5-ME]	0.08	1.25		
